Experimental data as given in patent US20190225650A1, “PEPTIDOMIMETIC MACROCYCLES AND USE THEREOF IN REGULATING HIF1ALPHA” (AILERON THERAPEUTICS, INC., priority 2013, published 2019).
Bridge positions count the residues as written; N and C are the ends. Square brackets hold non-standard residues; d marks the D form. Peptide text beside a SMILES is read from it. Ala(3-Me-diazirin-3-yl) = CC1(C[C@H](N)C(=O)O)N=N1; R8 = C=CCCCCCC[C@@](C)(N)C(=O)O; S5 = C=CCCC[C@](C)(N)C(=O)O; Nle = CCCC[C@H](N)C(=O)O

Molecular target: T1, flag-tagged HIF1α (AA 786-826) / His6-tagged p300 (AA 323-423) complex (Homo sapiens, UniProt Q09472)
T1 construct: His6-tagged p300 (AA 323-423); made in house; host or cells: E. coli (pETDuet vector)
Assay: HIF1α p300 displacement assay (TR FRET, +CHAPS)
Assay type: binding
Details: read-out: IC50 (nM) (HIF1α_p300 Displacement + CHAPS)
Description: The ability of peptides to displace HIF1α c-terminal trans-activation domain from p300-CH was measured by a TR FRET assay. A complex of flag-tagged HIF1α (AA 786-826) and His6-tagged p300 (AA 323-423) was co-expressed using pETDuet vector (EMDMillipore, Bellrica Mass.) and purified from E. coli in the presence of 0.1 mM ZnSO4. The complex was diluted to 300 nM final in complete assay media and competitor peptides were added. The complete assay media contained 150 mM NaCl (Sigma +S5150 or equivalent), 20 mM HEPES pH 7.4 (Boston Bioproducts, Ashland, Mass.; #BB-2076), 7.5 mM CHAPS (Thermo #28300 or equivalent), and 1 mM DTT. Protein and peptide were incubated at room temperature for 1 hour before the addition of anti-Flag-K and anti-6×HIS-D2 (CisBio, Bedford Mass.) HTRF reconstitution buffer (50 mM Phosphate pH 7, 0.8 Potassium Flouride, BSA 0.2%)^1 to a final concentration of 0.5 μM and 4 nM respectively. The reaction continued for an additional two hours at room temperature. The reaction was read on a TECAN F500 plate reader with settings recommended by CisBio. The ratio of donor to acceptor fluorescence was calculated. The resulting data was analyzed with Graphpad Prism 5.0. IC50 values were calculated for both proteins using the One Site Fit-LogIC50 equation and presented in the column “IC50 (nM) (HIF1α_p300 Displacement+CHAPS)” of Table 6. ^1 Cisbio USA, Bedford, Mass.; 61HISDLB (lot 007A), 61FG2KLB (024A), HTRF Buffer (62RB3RDF)

Row | Compound | IC50
1 | CC[C@H](C)[C@H](NC(=O)[C@H](Cc1ccccc1)NC(C)=O)C(=O)N[C@@H](CC(=O)O)C(=O)N[C@@H](CCC(=O)O)C(=O)N[C@]1(C)CCCCCCC=CCCC[C@@](C)(C(=O)N[C@@H](CCC(=O)O)C(=O)N[C@@H](CCSC)C(=O)NCC(=O)N[C@@H](CC(C)C)C(N)=O)NC(=O)[C@H](C(C)C)NC(=O)[C@H](CC(C)C)NC(=O)[C@H](CO)NC(=O)[C@H](CCSC)NC(=O)[C@H](CC(C)C)NC(=O)[C@H](C(C)C)NC1=O [SP-187] (Ac-FIDE[R8]VLMSLV[S5]EMGL-NH2; staple 5-12) | > 700 nM
2 | CC[C@H](C)[C@H](NC(=O)[C@H](Cc1ccccc1)NC(C)=O)C(=O)N[C@@H](CC(=O)O)C(=O)N[C@@H](CCC(=O)O)C(=O)N[C@]1(C)CCCCCCC=CCCC[C@@](C)(C(=O)N[C@@H](CCC(=O)O)C(=O)N[C@@H](CCSC)C(=O)NCC(N)=O)NC(=O)[C@H](C(C)C)NC(=O)[C@H](CC(C)C)NC(=O)[C@H](CO)NC(=O)[C@H](C)NC(=O)[C@H](CC(C)C)NC(=O)[C@H](C(C)C)NC1=O [SP-184] (Ac-FIDE[R8]VLASLV[S5]EMG-NH2; staple 5-12) | > 700 nM
3 | CCCC[C@@H]1NC(=O)[C@H](CC(C)C)NC(=O)[C@](C)(NC(=O)[C@H](CCC(=O)O)NC(=O)[C@H](CCC(=O)O)NC(=O)[C@H](CC(=O)O)NC(=O)[C@@H](NC(=O)[C@H](CC(N)=O)NC(=O)[C@@H](NC(=O)[C@H](CCC(N)=O)NC(=O)[C@]2(C)CCCC=CCCC[C@](C)(NC(=O)[C@H](CC(C)C)NC(=O)[C@H](CCC(=O)O)NC(=O)[C@H](CCC(=O)O)NC(=O)CNC(=O)[C@H](CCC(N)=O)NC(=O)[C@H](CC(C)C)NC(=O)[C@H](CC(C)C)NC(C)=O)C(=O)N[C@@H](CCCNC(=N)N)C(=O)N[C@@H](C)C(=O)N[C@@H](CC(C)C)C(=O)N2)C(C)C)[C@@H](C)CC)CCCCCCC=CCCC[C@@](C)(C(=O)N[C@@H](CCCC)C(=O)NCC(N)=O)NC(=O)[C@H]([C@@H](C)CC)NC(=O)[C@H](C(C)C)NC(=O)[C@H](CC(C)C)NC(=O)[C@H](CO)NC1=O [SP-331] (Ac-LLQGEEL[S5]RAL[S5]QVNIDEE[R8]L[Nle]SLVI[S5][Nle]G-NH2; staple 8-12, 20-27) | > 700 nM
4 | CCCC[C@H](NC(=O)[C@H](CC(C)C)NC(=O)[C@@H](NC(=O)[C@H](C)NC(=O)[C@H](CCC(=O)O)NC(=O)[C@H](C)NC(=O)[C@@H](NC(=O)[C@H](Cc1ccccc1)NC(C)=O)[C@@H](C)CC)C(C)C)C(=O)N[C@@]1(C)CCCC=CCCC[C@@](C)(C(=O)N[C@@H](CCCC)C(=O)N[C@@H](C)C(=O)N[C@@H](CC(C)C)C(=O)N[C@@H](C)C(=O)N[C@@H](C)C(=O)N[C@H](C(N)=O)[C@@H](C)CC)NC(=O)[C@H]([C@@H](C)CC)NC(=O)[C@H](C(C)C)NC(=O)[C@H](CC(C)C)NC1=O [SP-223] (Ac-FIAEAVL[Nle][S5]LVI[S5][Nle]ALAAI-NH2; staple 9-13) | > 700 nM
5 | CCCC[C@H](NC(=O)[C@H](CCC(=O)O)NC(=O)[C@@H](NC(=O)[C@]1(C)CCCC=CCCC[C@](C)(NC(=O)[C@@H](NC(=O)[C@H](CCC(=O)O)NC(=O)[C@H](CCC(=O)O)NC(=O)[C@H](CC(=O)O)NC(=O)[C@@H](NC(=O)[C@H](CC(N)=O)NC(=O)[C@@H](NC(=O)[C@H](CCC(N)=O)NC(=O)[C@H](CC(=O)O)NC(=O)[C@H](CC(C)C)NC(=O)[C@H](C)NC(=O)[C@H](CCCNC(=N)N)NC(=O)[C@]2(C)CCCC=CCCC[C@](C)(NC(=O)[C@H](CCC(N)=O)NC(=O)[C@H](CC(C)C)NC(=O)[C@H](CC(C)C)NC(C)=O)C(=O)N[C@@H](CCC(=O)O)C(=O)N[C@@H](CCC(=O)O)C(=O)N[C@@H](CC(C)C)C(=O)N2)C(C)C)[C@@H](C)CC)C(C)C)C(=O)N[C@@H](CCCC)C(=O)N[C@@H](CO)C(=O)N[C@@H](CC(C)C)C(=O)N1)[C@@H](C)CC)C(=O)NCC(N)=O [SP-302] (Ac-LLQ[S5]EEL[S5]RALDQVNIDEEV[S5][Nle]SL[S5]IE[Nle]G-NH2; staple 4-8, 21-25) | > 700 nM
6 | CCCC[C@@H]1NC(=O)[C@H](CC(C)C)NC(=O)[C@H](C(C)C)NC(=O)[C@](C)(NC(=O)[C@H](CCC(=O)O)NC(=O)[C@H](CC(=O)O)NC(=O)[C@@H](NC(=O)[C@H](Cc2ccccc2)NC(C)=O)[C@@H](C)CC)CCCCCCC=CCCC[C@@](C)(C(=O)N[C@@H](CCC(=O)O)C(=O)N[C@@H](CCSC)C(=O)NCC(N)=O)NC(=O)[C@H](C(C)C)NC(=O)[C@H](CC(C)C)NC(=O)[C@H](CO)NC1=O [SP-185] (Ac-FIDE[R8]VL[Nle]SLV[S5]EMG-NH2; staple 5-12) | > 700 nM
7 | CCCC[C@H](NC(=O)[C@H](Cc1ccccc1)NC(=O)[C@@H](NC(=O)[C@H](CCC(=O)O)NC(=O)[C@H](CCC(=O)O)NC(=O)[C@H](CC(=O)O)NC(=O)[C@@H](NC(=O)[C@H](Cc1ccccc1)NC(C)=O)[C@@H](C)CC)C(C)C)C(=O)N[C@@]1(C)CCCC=CCCC[C@@](C)(C(=O)N[C@@H](CCCC)C(=O)N[C@@H](C)C(=O)N[C@@H](CC(C)C)C(=O)N[C@@H](CC(C)C)C(N)=O)NC(=O)[C@H]([C@@H](C)CC)NC(=O)[C@H](C(C)C)NC(=O)[C@H](CC(C)C)NC1=O [SP-242] (Ac-FIDEEVF[Nle][S5]LVI[S5][Nle]ALL-NH2; staple 9-13) | ≤ 200 nM
8 | CCCC[C@@H]1NC(=O)[C@H](CC(C)C)NC(=O)[C@](C)(NC(=O)[C@H](CCC(=O)O)NC(=O)[C@H](CCC(=O)O)NC(=O)[C@H](CC(=O)O)NC(=O)[C@@H](NC(=O)[C@H](CC(N)=O)NC(=O)[C@@H](NC(=O)[C@H](CCC(N)=O)NC(=O)[C@H](CC(=O)O)NC(=O)[C@H](CC(C)C)NC(=O)[C@H](C)NC(=O)[C@H](CCCNC(=N)N)NC(=O)[C@]2(C)CCCC=CCCC[C@](C)(NC(=O)[C@H](CCC(N)=O)NC(=O)[C@H](CC(C)C)NC(=O)[C@H](CC(C)C)NC(C)=O)C(=O)N[C@@H](CCC(=O)O)C(=O)N[C@@H](CCC(=O)O)C(=O)N[C@@H](CC(C)C)C(=O)N2)C(C)C)[C@@H](C)CC)CCCCCCC=CCCC[C@@](C)(C(=O)N[C@@H](CCCC)C(=O)NCC(N)=O)NC(=O)[C@H]([C@@H](C)CC)NC(=O)[C@H](C(C)C)NC(=O)[C@H](CC(C)C)NC(=O)[C@H](CO)NC1=O [SP-329] (Ac-LLQ[S5]EEL[S5]RALDQVNIDEE[R8]L[Nle]SLVI[S5][Nle]G-NH2; staple 4-8, 20-27) | > 700 nM
9 | SP-72 (Ac-FIDEEVL[Nle][S5]L[Ala(3-Me-diazirin-3-yl)]I[S5][Nle]ALDRI-NH2; staple 9-13) | 400 to 700 nM
10 | CCCC[C@H](NC(=O)[C@H](CC(C)C)NC(=O)[C@@H](NC(=O)[C@H](CCC(=O)O)NC(=O)[C@H](CCC(=O)O)NC(=O)[C@H](CC(=O)O)NC(=O)[C@@H](NC(=O)[C@H](CC(N)=O)NC(=O)[C@@H](NC(=O)[C@H](CCC(N)=O)NC(=O)[C@H](CC(=O)O)NC(=O)[C@H](CC(C)C)NC(=O)[C@H](C)NC(=O)[C@H](CCCNC(=N)N)NC(=O)[C@]1(C)CCCC=CCCC[C@](C)(NC(=O)[C@H](CCC(N)=O)NC(=O)[C@H](CC(C)C)NC(=O)[C@H](CC(C)C)NC(C)=O)C(=O)N[C@@H](CCC(=O)O)C(=O)N[C@@H](CCC(=O)O)C(=O)N[C@@H](CC(C)C)C(=O)N1)C(C)C)[C@@H](C)CC)C(C)C)C(=O)N[C@@]1(C)CCCC=CCCC[C@@](C)(C(=O)N[C@@H](CCCC)C(=O)N[C@@H](C)C(=O)N[C@@H](CC(C)C)C(N)=O)NC(=O)[C@H]([C@@H](C)CC)NC(=O)[C@H](C(C)C)NC(=O)[C@H](CC(C)C)NC1=O [SP-370] (Ac-LLQ[S5]EEL[S5]RALDQVNIDEEVL[Nle][S5]LVI[S5][Nle]AL-NH2; staple 4-8, 23-27) | > 700 nM
11 | CCCC[C@H](NC(=O)[C@H](CCC(=O)O)NC(=O)[C@]1(C)CCCC=CCCCCCC[C@@](C)(NC(=O)[C@H](C)NC(=O)[C@H](C)NC(=O)[C@@H](NC(=O)[C@H](CC(N)=O)NC(=O)[C@@H](NC(=O)[C@]2(C)CCCC=CCCCCCC[C@@](C)(NC(=O)[C@H](C)NC(=O)CNC(=O)[C@H](CCC(N)=O)NC(=O)[C@H](CC(C)C)NC(=O)[C@H](CC(C)C)NC(C)=O)C(=O)N[C@@H](CC(C)C)C(=O)N[C@@H](CC(C)C)C(=O)N[C@@H](CCCNC(=N)N)C(=O)N[C@@H](C)C(=O)N[C@@H](CC(C)C)C(=O)N[C@@H](C)C(=O)N2)C(C)C)[C@@H](C)CC)C(=O)N[C@@H](C(C)C)C(=O)N[C@@H](CC(C)C)C(=O)N[C@@H](CCCC)C(=O)N[C@@H](CO)C(=O)N[C@@H](CC(C)C)C(=O)N[C@@H](C(C)C)C(=O)N1)C(N)=O [SP-356] (Ac-LLQGA[R8]LLRALA[S5]VNIAA[R8]VL[Nle]SLV[S5]E[Nle]-NH2; staple 6-13, 19-26) | > 700 nM
12 | CCCC[C@H](NC(=O)[C@H](CCC(=O)O)NC(=O)[C@@H](NC(=O)[C@@H](NC(=O)[C@H](CC(C)C)NC(=O)[C@]1(C)CCCC=CCCC[C@](C)(NC(=O)[C@H](CCC(=O)O)NC(=O)[C@H](CC(=O)O)NC(=O)[C@@H](NC(=O)[C@H](Cc2ccccc2)NC(C)=O)[C@@H](C)CC)C(=O)N[C@@H](C(C)C)C(=O)N[C@@H](CC(C)C)C(=O)N[C@@H](CCCC)C(=O)N1)C(C)C)[C@@H](C)CC)C(=O)N[C@@H](C)C(=O)N[C@@H](CC(C)C)C(=O)N[C@@H](CCCCN)C(=O)N[C@@H](CCCCN)C(N)=O [SP-133] (Ac-FIDE[S5]VL[Nle][S5]LVIE[Nle]ALKK-NH2; staple 5-9) | > 700 nM
